# Test results taken from patent publication US20190054067A1, “COMPOSITIONS AND METHODS FOR TREATING COMPULSIVE-LIKE BEHAVIOR IN A SUBJECT” (UNIVERSITY OF THE SCIENCES, priority 2016, published 2019).
# Assays:
# [1] = test system: compulsive-like BIG male mice; conditions: compulsive-like BIG mice (Greene-Schloesser et al., 2011); cited from earlier work
# [2] = test system: compulsive-like BIG mice; conditions: cited from earlier work
# [3] = test system: compulsive-like BIG male mice; conditions: compulsive-like BIG mice (Greene-Schloesser et al., 2011); cited from earlier work; remark: listed apart in the source
# [4] = test system: compulsive-like BIG male mice; test: compulsive-like nest building (NB) behavior; type: in vivo, Mus musculus; conditions: for overall nesting scores vs control (saline) / overall nesting scores vs control: 0-24 h; for suppression of NB vs control: chronic (daily s.c., tested day 30); for overall nesting scores vs control: chronic; for effect on NB (ANOVA over dose groups): chronic, 2, 4 and 6 mg/kg groups
# Protocol: (§1) Compulsive-like BIG male mice, Mus musculus, were raised on wood shavings in polypropylene cages (27×17×12 cm) under controlled temperature (22±1° C.) and light (12:12 light-dark cycle) with free access to food (Purina Mills, Lab Diet Mouse Diet #5015, St. Louis, Mo.) and water. Animals were approximately 12-16 weeks of age at the start of each experiment.
# (§2) Deformylflustrabromine hydrochloride (dFBr; Abcam Biochemicals) was dissolved in physiological saline (pH=6.7) to yield final doses of 2.0 mg/kg (0.27 mg/mL), 4 mg/kg (0.53 mg/mL) and 6 mg/kg (0.80 mg/mL). Saline was used as a vehicle control (0 mg/kg). A mouse of 40 g received an injection volume of 0.3 mL. Injection volumes were proportionally adjusted according to the body weight of individual animals.
# (§3) Acute Study: Male BIG mice were divided into four treatment groups comprising vehicle (sterile saline), 2 mg/kg, 4 mg/kg and 6 mg/kg. Animals in each group (n=12 per group) were tested for nesting on day 1, MB on day 3 and open field (OF) on day 5. On the first day of testing animals randomly received dFBr or vehicle subcutaneously and in subsequent tests received the same dose. Days 2 and 4 were employed to avoid any residual effects of dFBr from previous administration. For nesting, data were collected after 1, 2, 3, 4, 5 and 24 h due to the progressive nature of the NB (The BIG mice typically get excited and indulge in excessive and repetitive NB when introduced to cotton for the first 3-4 h in the light cycle. This excessive and repetitive nesting activity resumes again in the dark cycle). MB and OF behavior was performed 2 h after dFBr administration (FIG. 1).
# (§4) Chronic Study; Since the foundation of the animal model was established through effective reversal of compulsive-like NB and MB behaviors by chronic fluoxetine treatment, a chronic regimen was also conducted to establish the sustained and long term effects of dFBr on NB and MB. Animals belonging to 0, 2, 4 and 6 mg/kg dose group (n=12 per group) received single subcutaneous injection of dFBr or saline daily for 32 days. NB, MB and OF behaviors were assessed in the final week (weeks 5) after dFBr administration (NB after 1, 2, 3, 4, 5 and 24 h, and MB after 2 h of drug injection). NB was performed on day 30, MB on day 31 and OF on day 32 (FIG. 1).
# Nest-building behavior was performed to assess compulsive-like behavior in the mice. For both acute and chronic studies, immediately following subcutaneous injection of dFBr, compulsive-like male mice were singly housed and provided with a pre-weighed roll of cotton (Mountain Mist cotton batting, Troy, Inc., Chicago, Ill.) in the cage-top food hopper. The cotton roll was weighed after 1, 2, 3, 4, 5 and 24 hours. Nesting behavior was quantified by the grams of cotton used during each testing period.
# (§5) Statistical analysis was performed in Graphpad Prism (GraphPad Software, Inc) and Statistical Analysis System Software (Version 9.4, Cary, N.C.). Nest-building (grams of cotton), marble burying (number of marbles at least ⅔ buried) and open field measures (time in center and total distance travelled) were expressed as the mean±standard error of the mean (SEM). The nest building data were shown as grams of cotton used, whereas the statistical analysis was conducted on the square-root transformed nesting scores in order to normalize the data (Bult & Lynch, 2000, Behavior Genetics 30:193-206). Nesting scores at different time points, marble burying and open field results were analyzed by one-way analysis of variance (ANOVA), whereas overall drug and drug by time interaction effect between 0-5 hours was done by two-way analysis of variance (ANOVA). Pairwise comparisons for significant differences were tested by the post-hoc Bonferroni multiple comparison test. A probability level of p<0.05 was used as an index of statistical significance in all cases.
# [5] = test system: compulsive-like BIG male mice; test: open field (OF) test, anxiety-like and locomotor behavior; type: in vivo, Mus musculus
# Protocol: as §1, §2
# Acute Study: Male BIG mice were divided into four treatment groups comprising vehicle (sterile saline), 2 mg/kg, 4 mg/kg and 6 mg/kg. Animals in each group (n=12 per group) were tested for nesting on day 1, MB on day 3 and open field (OF) on day 5. On the first day of testing animals randomly received dFBr or vehicle subcutaneously and in subsequent tests received the same dose. Days 2 and 4 were employed to avoid any residual effects of dFBr from previous administration. […]
# as §4, with “Animals belonging to 0, 2, 4 and 6 mg/kg dose group (n=12 per group) received single subcutaneous injection of dFBr or saline daily for 32 days.” left out, “NB was performed on day 30, MB on day 31 and OF on day 32 (FIG. 1).” left out
# Anxiety-like behaviors were determined through the open field test. […] The animals were placed in the center of the open field, and their behavior was video taped for 3 min and analyzed with the aid of ANYMAZE™ video tracking software (Stoelting Co., Ill.). The time spent in the center (anxiety-like measure) and total distance travelled (locomotion) in the entire open field were measured. […]
# Statistical analysis was performed in Graphpad Prism (GraphPad Software, Inc) and Statistical Analysis System Software (Version 9.4, Cary, N.C.). Nest-building (grams of cotton), marble burying (number of marbles at least ⅔ buried) and open field measures (time in center and total distance travelled) were expressed as the mean±standard error of the mean (SEM). […] Nesting scores at different time points, marble burying and open field results were analyzed by one-way analysis of variance (ANOVA), whereas overall drug and drug by time interaction effect between 0-5 hours was done by two-way analysis of variance (ANOVA). […]
# [6] = molecular target: high sensitivity (HS) α4β2 receptors (Homo sapiens, UniProt P17787+P43681); conditions: cited from earlier work
# high sensitivity (HS) α4β2 receptors, sequence (P43681 29-627 limits assumed): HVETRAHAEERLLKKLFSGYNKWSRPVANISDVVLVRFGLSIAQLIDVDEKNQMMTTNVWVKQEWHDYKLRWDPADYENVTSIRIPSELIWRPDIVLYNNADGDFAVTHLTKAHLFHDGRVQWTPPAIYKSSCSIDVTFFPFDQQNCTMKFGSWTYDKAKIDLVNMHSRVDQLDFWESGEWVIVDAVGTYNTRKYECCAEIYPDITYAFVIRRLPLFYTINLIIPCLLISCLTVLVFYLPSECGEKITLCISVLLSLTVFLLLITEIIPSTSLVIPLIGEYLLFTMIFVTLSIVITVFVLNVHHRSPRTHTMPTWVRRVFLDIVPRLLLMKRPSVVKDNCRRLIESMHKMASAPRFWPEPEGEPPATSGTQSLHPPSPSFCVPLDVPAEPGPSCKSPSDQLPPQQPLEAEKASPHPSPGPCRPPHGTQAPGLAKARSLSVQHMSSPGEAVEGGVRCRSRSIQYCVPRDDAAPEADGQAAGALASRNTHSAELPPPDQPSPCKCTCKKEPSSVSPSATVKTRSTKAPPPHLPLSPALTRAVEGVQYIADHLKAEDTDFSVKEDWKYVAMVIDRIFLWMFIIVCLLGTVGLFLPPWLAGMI
# high sensitivity (HS) α4β2 receptors, sequence (P17787 26-502): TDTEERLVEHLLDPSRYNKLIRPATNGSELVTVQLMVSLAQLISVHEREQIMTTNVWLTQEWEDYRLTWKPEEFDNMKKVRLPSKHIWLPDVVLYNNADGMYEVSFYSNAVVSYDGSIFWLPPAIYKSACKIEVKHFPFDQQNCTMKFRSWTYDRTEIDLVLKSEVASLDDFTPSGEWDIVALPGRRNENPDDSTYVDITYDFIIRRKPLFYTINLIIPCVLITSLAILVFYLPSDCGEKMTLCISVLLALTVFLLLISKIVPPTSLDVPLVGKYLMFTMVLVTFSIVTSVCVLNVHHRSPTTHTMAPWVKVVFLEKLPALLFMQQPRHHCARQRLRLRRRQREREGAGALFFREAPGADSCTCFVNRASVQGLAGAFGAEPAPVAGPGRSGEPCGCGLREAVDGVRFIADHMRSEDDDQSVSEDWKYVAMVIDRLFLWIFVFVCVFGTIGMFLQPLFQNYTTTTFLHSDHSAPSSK
# [7] = test system: compulsive-like BIG male mice; test: compulsive-like marble burying (MB) behavior; type: in vivo, Mus musculus; conditions: for marble-burying behavior (marbles at least 2/3 buried) vs control: acute, 2 h after administration; for suppression of MB vs control: chronic, fifth week (day 31), 2 h after injection
# Protocol: as §1, §2, §3, §4
# The marble-burying test is an effective test for determining compulsive-like behavior in mice. […] Two hours after dFBr administration, compulsive-like male mice were individually introduced to a polypropylene cage (37×21×14 cm) containing 20 glass marbles (10 mm in diameter) evenly spaced on 5 cm deep wood chip bedding without access to food or water for 20 min. Testing was carried out in the testing room separate from the housing room. The total number of marbles buried at least ⅔ in the 20-min period was quantified as compulsive-like digging behavior. After the 20-min test, the animals were returned to their home cages.
# as §5
# [8] = molecular target: low sensitivity (LS) α4β2 receptors (Homo sapiens, UniProt P17787+P43681); conditions: cited from earlier work
# low sensitivity (LS) α4β2 receptors, sequence (P43681 29-627 limits assumed): as the sequence (P43681 29-627 limits assumed) above
# low sensitivity (LS) α4β2 receptors, sequence (P17787 26-502): as the sequence (P17787 26-502) above
# [9] = cited from earlier work
# [10] = acute, 0, 2, 4, 6 mg/kg s.c., 2 h after administration
# [11] = chronic regimen (day 32), 0, 2, 4, 6 mg/kg
compound,measurement,setting,value
CNCCC(Oc1ccc(C(F)(F)F)cc1)c1ccccc1 (centres unmarked) [fluoxetine],MB behavior,[1],significantly attenuated
same,overall wheel-running locomotion,[2],failed to reduce
same,NB behavior,[3],significantly attenuated
"C=CC(C)(C)c1[nH]c2cc(Br)ccc2c1CCNC [dFBr, 2-[6-bromo-2-(2-methylbut-3-en-2-yl)-1H-indol-3-yl]-N-methylethanamine]",nesting (cotton used) vs control (saline),"[4]; acute, 2 mg/kg s.c., 0-1 h",no significant attenuation of nesting
same,overall nesting scores vs control (saline),"[4]; acute, 2 mg/kg s.c.",significantly below the control group
same,nesting (cotton used) vs control (saline),"[4]; acute, 2 mg/kg s.c., 1-2 h",no significant effect
same,nesting (cotton used) vs control (saline),"[4]; acute, 2 mg/kg s.c., 2-3 h",No significant difference
same,nesting (cotton used) vs control (saline),"[4]; acute, 2 mg/kg s.c., 3-4 h",not significantly different
same,nesting (cotton used) vs control (saline),"[4]; acute, 2 mg/kg s.c., 4-5 h",not significantly different
same,nesting (cotton used) vs control (saline),"[4]; acute, 2 mg/kg s.c., 5-24 h",suppressed the nesting score significantly
same,fractional nesting score (nesting score divided by average of vehicle group),"[4]; acute, 2 mg/kg s.c., first 5 hours",~1
same,nesting (cotton used) vs control (saline),"[4]; acute, 2 mg/kg s.c., overall 0-5 h",did not attenuate nesting
same,time of greatest suppression of nesting (fractional nesting score),"[4]; acute, 4 mg/kg s.c.",1 to 2 h
same,nesting (cotton used) vs control (saline),"[4]; acute, 4 mg/kg s.c., 0-1 h",no significant attenuation of nesting
same,overall nesting scores vs control (saline),"[4]; acute, 4 mg/kg s.c.",significantly below the control group
same,nesting (cotton used) vs control (saline),"[4]; acute, 4 mg/kg s.c., 1-2 h",significantly attenuated nesting
same,nesting (cotton used) vs control (saline),"[4]; acute, 4 mg/kg s.c., 2-3 h",No significant difference
same,nesting (cotton used) vs control (saline),"[4]; acute, 4 mg/kg s.c., 3-4 h",significantly reduced
same,nesting (cotton used) vs control (saline),"[4]; acute, 4 mg/kg s.c., 4-5 h",not significantly different
same,nesting (cotton used) vs control (saline),"[4]; acute, 4 mg/kg s.c., 5-24 h",suppressed the nesting score significantly
same,nesting (cotton used) vs control (saline),"[4]; acute, 4 mg/kg s.c., overall 0-5 h",significantly reduced
same,time of greatest suppression of nesting (fractional nesting score),"[4]; acute, 6 mg/kg s.c.",1 to 2 h
same,nesting (cotton used) vs control (saline),"[4]; acute, 6 mg/kg s.c., 0-1 h",no significant attenuation of nesting
same,overall nesting scores vs control (saline),"[4]; acute, 6 mg/kg s.c.",significantly below the control group
same,nesting (cotton used) vs control (saline),"[4]; acute, 6 mg/kg s.c., 1-2 h",significantly attenuated nesting
same,nesting (cotton used) vs control (saline),"[4]; acute, 6 mg/kg s.c., 2-3 h",significantly reduced
same,nesting (cotton used) vs control (saline),"[4]; acute, 6 mg/kg s.c., 3-4 h",significantly reduced
same,nesting (cotton used) vs control (saline),"[4]; acute, 6 mg/kg s.c., 4-5 h",not significantly different
same,nesting (cotton used) vs control (saline),"[4]; acute, 6 mg/kg s.c., 5-24 h",suppressed the nesting score significantly
same,nesting (cotton used) vs control (saline),"[4]; acute, 6 mg/kg s.c., overall 0-5 h",significantly reduced
same,suppression of NB vs control,"[4]; 2 mg/kg, 1-2 h",main attenuating effects
same,suppression of NB vs control,"[4]; 4 mg/kg, 0-1 h",most effective doses
same,suppression of NB vs control,"[4]; 6 mg/kg, 0-1 h",most effective doses
same,suppression of NB vs control,"[4]; 6 mg/kg, 1-2 h",main attenuating effects
same,overall nesting scores vs control,[4]; 2 mg/kg,significantly below the control group
same,overall nesting scores vs control,[4]; 4 mg/kg,significantly below the control group
same,overall nesting scores vs control,[4]; 6 mg/kg,significantly below the control group
same,effect on NB (ANOVA over dose groups),[4]; 2-3 h,No significant effect
same,effect on NB (ANOVA over dose groups),[4]; 3-4 h,No significant effect
same,effect on NB (ANOVA over dose groups),[4]; 4-5 h,No significant effect
same,time spent in center of the OF (anxiety-like),[5]; [10],No significant differences
same,total distance traveled (locomotor activity),[5]; [10],not different among the treatment groups
same,time in center,[5]; [11],did not differ among treatment groups
same,total distance,[5]; [11],did not differ among treatment groups
same,potentiation of acetylcholine-induced whole cell responses,[6],370%
same,EC50,[6]; read-out: EC50 of potentiation,40 µM
same,marble-burying behavior (marbles at least 2/3 buried) vs control,[7]; 2 mg/kg s.c.,decreased marble-burying behavior
same,marble-burying behavior (marbles at least 2/3 buried) vs control,[7]; 4 mg/kg s.c.,decreased marble-burying behavior
same,marble-burying behavior (marbles at least 2/3 buried) vs control,[7]; 6 mg/kg s.c.,decreased marble-burying behavior
same,reduction of MB behavior vs control,"[7]; chronic regimen, 2 mg/kg, 2 h time point",not significant
same,suppression of MB vs control,[7]; 4 mg/kg,maximum suppression of MB
same,suppression of MB vs control,[7]; 6 mg/kg,maximum suppression of MB
same,potentiation of acetylcholine-induced whole cell responses,[8],260%
same,EC50,[8]; read-out: EC50 of potentiation,2.5 µM
same,amount reaching the cerebrospinal fluid,[9]; after 90 min of subcutaneous administration,around 36%
same,time of peak levels in the cerebrospinal fluid,"[9]; rats, after administration",90 min
